By IC50 is commonly meant the concentration that inhibits the measured activity by half.

The results in this text go back to patent US10336729B2, “4-cyano-benzyl carbamimidoylcarbamate derivatives and their use as AOC3 inhibitors” (Boehringer Ingelheim International GmbH, priority 2016, dated 2019).

The target in this assay is AOC3 (Homo sapiens (Human), UniProt Q16853). The assay can be described thus: MAO-Glo AOC3 assay. In kind it is biochemical. The following applies: recombinant CHO cells overexpressing AOC3 enzyme. The text has this: The MAO-Glo™ Assay (commercial available from PROMEGA, #V1402) provides a sensitive method for the measurement of monoamine oxidase (MAO) activity (Valley, M. P. et al., 2006, Anal. Biochem. 359: 238-246) from a variety of tissues, biofluids or recombinant expressed or purified enzymes. As substrate a derivate of the beetle luciferin ((4S)-4,5-dihydro-2-(6-hydroxybenzothiazolyl)-4-thiazole-carboxylic acid) is used, which is oxidized at a primary amine moiety. After a spontaneous elimination and a catalyzed esterase reaction, the turnover of the luciferine by the luciferase is recorded as a signal of AOC3 activity.
Chain of AOC3 (Q16853 whole entry): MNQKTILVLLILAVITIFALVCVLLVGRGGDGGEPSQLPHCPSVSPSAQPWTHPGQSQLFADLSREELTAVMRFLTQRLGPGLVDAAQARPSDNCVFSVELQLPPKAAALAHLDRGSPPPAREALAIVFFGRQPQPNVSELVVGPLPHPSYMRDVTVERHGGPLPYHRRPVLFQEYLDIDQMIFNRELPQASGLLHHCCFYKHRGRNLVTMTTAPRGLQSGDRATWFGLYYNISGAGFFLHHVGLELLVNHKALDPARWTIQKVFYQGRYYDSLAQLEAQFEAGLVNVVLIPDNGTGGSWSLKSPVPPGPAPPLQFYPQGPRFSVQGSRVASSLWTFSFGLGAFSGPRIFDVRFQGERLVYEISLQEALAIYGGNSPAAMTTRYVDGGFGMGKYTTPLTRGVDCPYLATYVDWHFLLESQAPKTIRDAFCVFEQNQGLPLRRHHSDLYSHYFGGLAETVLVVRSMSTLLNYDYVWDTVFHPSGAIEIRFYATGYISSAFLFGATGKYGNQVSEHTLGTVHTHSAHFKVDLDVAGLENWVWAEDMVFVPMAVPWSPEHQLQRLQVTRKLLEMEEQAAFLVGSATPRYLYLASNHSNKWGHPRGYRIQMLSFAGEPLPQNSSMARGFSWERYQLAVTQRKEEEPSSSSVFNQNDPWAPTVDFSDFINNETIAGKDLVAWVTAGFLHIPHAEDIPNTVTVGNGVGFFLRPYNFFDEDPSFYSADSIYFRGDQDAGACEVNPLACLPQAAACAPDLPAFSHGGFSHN
An aliquot of 3 μL of the compound dilution is added to a 384 well plate (Optiplate, PS, flat bottom, white, PERKIN ELMER, #6007290) with a final DMSO concentration of 6.6%. Recombinant CHO cells, overexpressing the human (1500 cells/well), mouse (1000 cells/well) or rat (500 cells/well) AOC3 enzyme are diluted in reaction buffer and added in a volume of 15 μL to the wells. After incubation for 20 minutes at 37° C., 2 μL of MAO substrate (dissolved in DMSO at 16 mM, adjusted to assay concentration in reaction buffer to a final assay concentration of 20 μM) is added and further incubated for 60 minutes at 37° C. The turnover of the substrate is determined by the addition of 20 μL of the detection-mix which was generated by the addition of reconstitution buffer with esterase (PROMEGA, #V1402) to the luciferine detection reagent (PROMEGA, #V1402). After an incubation period of 20 minutes, the luminescent signal is measured with Envision 2104 Multilabel Reader (PERKIN ELMER).
For the compound `N#Cc1ccc(COC(=O)NC(=N)N)c(F)c1N1CCN(c2ccccn2)CC1` [Example 1.051], the IC50 came out at 271 nM.

Take `N#Cc1ccc(COC(=O)NC(=N)N)c(F)c1N1CCN(c2cnccn2)CC1` [Example 1.007]: the IC50 amounted to 10 nM. As to `N#Cc1ccc(COC(=O)NC(=N)N)c(F)c1N1CCN(c2ccc(C(N)=O)cc2)CC1` [Example 1.058], the IC50 stood at 71 nM.

In the case of `N#Cc1ccc(COC(=O)NC(=N)N)c(F)c1N1CCC(c2ccncc2)C1` (centres unmarked) [Example 1.019], the 50% inhibitory concentration (IC50) stood at 17 nM.

Turning to `N#Cc1ccc(N2CCN(c3c(C#N)ccc(COC(=O)NC(=N)N)c3F)CC2)cc1` [Example 1.009], the IC50 stood at 3 nM. Then `N#Cc1ccc(COC(=O)NC(=N)N)c(F)c1N1CCC2(CC1)CC(=O)Nc1ncccc12` [Example 2.002], with 93 nM. Then `CC(=O)N[C@@H](C)c1ccc(C2CN(c3c(C#N)ccc(COC(=O)NC(=N)N)c3F)C2)cc1` [Example 1.015], with 19 nM; and `N#Cc1ccc(COC(=O)NC(=N)N)c(F)c1N1CCC(c2ccc(Cl)cc2)CC1` [Example 1.049], with 102 nM. Turning to `N#Cc1ccc(COC(=O)NC(=N)N)c(F)c1N1CCN(c2ccncn2)CC1` [Example 1.001], the IC50 is 7 nM. Then `N#Cc1ccc(COC(=O)NC(=N)N)c(F)c1N1CCC(N2CCC(O)CC2)CC1` [Example 1.089], with 56 nM. Then `COc1ccc(N2CCN(c3c(C#N)ccc(COC(=O)NC(=N)N)c3F)CC2)cc1` [Example 1.074], with 128 nM; and `N#Cc1ccc(COC(=O)NC(=N)N)c(F)c1N1CCC(c2cn3ccccc3n2)CC1` [Example 1.025], with 5 nM. Then `CN1CCN(C2CCN(c3c(C#N)ccc(COC(=O)NC(=N)N)c3F)CC2)CC1=O` [Example 1.018], with 169 nM; and `COC(=O)N1CCC(C2CCN(c3c(C#N)ccc(COC(=O)NC(=N)N)c3F)CC2)CC1` [Example 1.027], with 4 nM. Consider `N#Cc1ccc(COC(=O)NC(=N)N)c(F)c1N1CCN(c2nccs2)CC1` [Example 1.036], for which the IC50 was found to be 27 nM. Then `N#Cc1cccc(N2CCN(c3c(C#N)ccc(COC(=O)NC(=N)N)c3F)CC2)c1` [Example 1.040], with 2 nM; and `N#Cc1ccc(COC(=O)NC(=N)N)c(F)c1N1CC=C(c2ncccn2)CC1` [Example 1.063], with 34 nM; and `Cc1cccc(C2CCN(c3c(C#N)ccc(COC(=O)NC(=N)N)c3F)CC2)c1` [Example 1.047], with 65 nM. Consider `N#Cc1ccc(COC(=O)NC(=N)N)c(F)c1N1CCN(c2cccnc2)CC1` [Example 1.012], for which the IC50 is 6 nM. As to `CC(=O)N1CCC(N2CCN(c3c(C#N)ccc(COC(=O)NC(=N)N)c3F)CC2)CC1` [Example 1.008], the IC50 worked out at 397 nM. Then `N#Cc1ccc(COC(=O)NC(=N)N)c(F)c1N1CCC(c2ncc(Cl)cn2)CC1` [Example 1.037], with 54 nM; and `N#Cc1ccc(COC(=O)NC(=N)N)c(F)c1N1CCC(c2ccc(C(=O)O)cc2)CC1` [Example 1.035], with 4 nM. Then `Cc1cccc(N2CCN(c3c(C#N)ccc(COC(=O)NC(=N)N)c3F)CC2)c1` [Example 1.066], with 20 nM; and `N#Cc1ccc(COC(=O)NC(=N)N)c(F)c1N1CCC(C#N)(c2ccccc2)CC1` [Example 2.001], with 166 nM. On to `Cc1cnc(C2CCN(c3c(C#N)ccc(COC(=O)NC(=N)N)c3F)CC2)o1` [Example 2.005], for which the half-inhibitory concentration (IC50) turned out to be 20 nM. Then `N#Cc1ccc(N2CCN(c3c(C#N)ccc(COC(=O)NC(=N)N)c3F)CC2)nc1` [Example 1.055], with 115 nM; and `Cc1ccc(N2CCN(c3c(C#N)ccc(COC(=O)NC(=N)N)c3F)CC2)cc1C` [Example 1.086], with 149 nM.

Regarding `N#Cc1ccc(N2CCN(c3c(C#N)ccc(COC(=O)NC(=N)N)c3F)CC2)c(F)c1` [Example 1.045], the IC50 worked out at 29 nM. Then `Cc1ccc(C2CCN(c3c(C#N)ccc(COC(=O)NC(=N)N)c3F)CC2)cc1` [Example 1.072], with 211 nM. Then `COc1cccc(N2CCN(c3c(C#N)ccc(COC(=O)NC(=N)N)c3F)CC2)c1` [Example 1.021], with 21 nM; and `N#Cc1ccc(COC(=O)NC(=N)N)c(F)c1N1CCN(C2CCCC2)C(=O)C1` [Example 1.053], with 15 nM; and `COc1cnc(C2CCN(c3c(C#N)ccc(COC(=O)NC(=N)N)c3F)CC2)nc1` [Example 1.032], with 110 nM. As to `N#Cc1ccc(COC(=O)NC(=N)N)c(F)c1N1CCN(c2ccncc2)CC1` [Example 2.003], the IC50 was 7 nM. As for `N#Cc1ccc(COC(=O)NC(=N)N)c(F)c1N1CCN(c2cccc(F)c2)CC1` [Example 1.028], the IC50 was 14 nM. On to `N#Cc1ccc(COC(=O)NC(=N)N)c(F)c1N1C2CCC1CC(c1ccccc1)C2` (centres unmarked) [Example 1.077], for which the IC50 came to 293 nM. As for `N#Cc1ccc(COC(=O)NC(=N)N)c(F)c1N1CCN(c2ccc(F)cc2)C(=O)C1` [Example 1.050], the IC50 is 5 nM. In the case of `N#Cc1ccc(C2CN(c3c(C#N)ccc(COC(=O)NC(=N)N)c3F)C2)cc1` [Example 1.013], the IC50 was 19 nM. Then `COc1cccc(C2=CCN(c3c(C#N)ccc(COC(=O)NC(=N)N)c3F)CC2)c1` [Example 1.061], with 30 nM; and `Cc1ccc(N2CCN(c3c(C#N)ccc(COC(=O)NC(=N)N)c3F)CC2)nn1` [Example 1.068], with 55 nM; and `N#Cc1ccc(COC(=O)NC(=N)N)c(F)c1N1CCN(c2ccc(C(F)(F)F)cc2)CC1` [Example 1.073], with 103 nM. Take `Cc1cc(N2CCN(c3c(C#N)ccc(COC(=O)NC(=N)N)c3F)CC2)ccn1` [Example 2.004]: the IC50 stood at 3 nM.
